Target: T1, rCLK1 (recombinant CLK1, KKT10) (Leishmania mexicana, UniProt E9AMP2)
T1 construct: gene LMXM_09_0400
T1 sequence (E9AMP2 1-422): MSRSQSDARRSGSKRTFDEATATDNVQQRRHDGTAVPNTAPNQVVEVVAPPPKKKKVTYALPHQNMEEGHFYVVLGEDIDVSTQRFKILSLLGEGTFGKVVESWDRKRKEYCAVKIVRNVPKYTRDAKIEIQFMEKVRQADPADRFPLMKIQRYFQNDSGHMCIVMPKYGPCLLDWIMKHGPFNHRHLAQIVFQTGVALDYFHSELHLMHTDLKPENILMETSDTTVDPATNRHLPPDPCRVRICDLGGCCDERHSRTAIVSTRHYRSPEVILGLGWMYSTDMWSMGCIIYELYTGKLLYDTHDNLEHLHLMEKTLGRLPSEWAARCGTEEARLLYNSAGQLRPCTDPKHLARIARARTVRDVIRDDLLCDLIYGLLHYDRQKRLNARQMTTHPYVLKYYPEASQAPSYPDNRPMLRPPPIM
Conditions: 1 mM ATP, 5 mM MgCl2, 1 mM MnCl2, pH 7.5, 2 h, 37 °C

SMILES: Nc1ncnc2c1ncn2[C@@H]1O[C@H](COP(=O)(O)OP(=O)(O)OP(=O)(O)O)[C@@H](O)[C@H]1O [ATP]
- autophosphorylation by intact mass spectrometry: Following incubation with ATP, rCLK1 exhibited three distinct phosphorylation states

Source: publication PMC13211308, “Chemical genetics reveals Leishmania KKT2 and CRK9 kinase activity is required for cell cycle progression” (PLOS Pathogens, 2026)
